# According to patent US20220265845A1, “AMINOTHIOLESTER COMPOUNDS AND USES THEREOF” (ADVANCED BIODESIGN, priority 2019, published 2022):
# Legend:
# Assay in all cases: Enzymatic assay with human recombinant ALDH (NADH fluorescence), IC50
# Type in all cases: biochemical
# Details in all cases: substrate Hexanal, NAD+, 37° C.
# [1] = molecular target: T1, Human recombinant ALDH1A1 (Homo sapiens, UniProt P00352)
# T1 construct: purchased Creative BioMart, NY, USA
# T1 sequence (P00352 1-501): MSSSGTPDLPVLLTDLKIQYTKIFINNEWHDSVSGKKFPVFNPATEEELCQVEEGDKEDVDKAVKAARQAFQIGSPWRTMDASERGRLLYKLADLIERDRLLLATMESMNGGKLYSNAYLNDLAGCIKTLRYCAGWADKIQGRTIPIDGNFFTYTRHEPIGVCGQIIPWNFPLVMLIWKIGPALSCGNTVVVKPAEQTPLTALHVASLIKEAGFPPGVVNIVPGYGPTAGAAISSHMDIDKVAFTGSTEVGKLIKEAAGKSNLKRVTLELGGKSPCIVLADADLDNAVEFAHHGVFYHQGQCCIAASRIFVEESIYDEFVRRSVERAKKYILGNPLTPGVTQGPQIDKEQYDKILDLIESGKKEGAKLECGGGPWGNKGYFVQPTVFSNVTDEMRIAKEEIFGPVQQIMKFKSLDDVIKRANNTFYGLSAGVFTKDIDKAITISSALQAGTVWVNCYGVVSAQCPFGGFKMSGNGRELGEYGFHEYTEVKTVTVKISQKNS
# Procedure: (§1) Human recombinant ALDH1A1, ALDH1 A2, ALDH1A3, ALDH2 (Creative BioMart, NY, USA) were prepared at 1 mg/mL. The enzymatic reactions were performed using saturating concentrations of substrate. To test the enzymatic activity of the enzymes, 10 μL of enzyme was added into a reaction buffer containing 50 mM HEPES pH 7.2, 30 mM MgCl2, plus 20 mM NAD^+ cofactor and 2 mM Hexanal (Sigma-Aldrich, St. Louis, Mo., USA) in the presence or absence of the different tested compounds. Internal standards were prepared with Nicotinamide adenine dinucleotide reduce form (NADH, 500 μM, Sigma-Aldrich) in Reaction Buffer (50 mM HEPES pH 7.2, 30 mM MgCl2).
# (§2) Time-dependent inhibition assays were performed for 0-2-5-10-15-20-30-45-60 min at 37° C. in 1 mL-quartz cuvette. The formation of NADH was monitored, reading samples at excitation wavelength=340 nm/emission wavelength=460 nm (fluorescence) for at least 600 sec using Cary Eclipse Varian fluorimeter.
# (§3) Negative control consisted in the same reactions except that enzyme was not added (enzyme blank). To determine the slope for enzyme blank and calculate product concentration (Unit of fluorescence) the following formulae was used: […]
# (§4) where Cst is the standard NADH concentration, Fst is the standard fluorescence and dF/dt is the slope of the time dependent fluorescence (S. Sotobodowska et al, 2012). The specific activity of the enzymes (μmol/min·mg-U/mg) in the absence of presence of inhibitors was calculated as follows: […]
# [2] = molecular target: T2, Human recombinant ALDH1A2 (Homo sapiens, UniProt O94788)
# T2 construct: purchased Creative BioMart, NY, USA
# T2 sequence (O94788 1-518): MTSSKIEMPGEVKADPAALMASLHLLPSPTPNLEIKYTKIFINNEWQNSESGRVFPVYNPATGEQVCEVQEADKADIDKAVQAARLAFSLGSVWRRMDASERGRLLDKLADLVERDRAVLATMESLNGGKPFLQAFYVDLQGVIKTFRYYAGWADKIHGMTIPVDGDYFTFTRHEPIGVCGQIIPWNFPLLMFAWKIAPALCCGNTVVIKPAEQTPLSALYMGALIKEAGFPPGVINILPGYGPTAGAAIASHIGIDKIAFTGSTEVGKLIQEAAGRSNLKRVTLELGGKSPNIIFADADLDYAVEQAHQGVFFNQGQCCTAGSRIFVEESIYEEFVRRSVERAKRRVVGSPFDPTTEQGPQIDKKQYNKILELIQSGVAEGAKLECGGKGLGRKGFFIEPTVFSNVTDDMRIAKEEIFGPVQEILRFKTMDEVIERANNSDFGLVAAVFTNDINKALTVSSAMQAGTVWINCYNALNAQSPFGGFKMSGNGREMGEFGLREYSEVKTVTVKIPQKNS
# Procedure: as §1, §2, §3, §4
# [3] = molecular target: T3, Human recombinant ALDH1A3 (Homo sapiens, UniProt P47895)
# T3 construct: purchased Creative BioMart, NY, USA
# T3 sequence (P47895 1-512): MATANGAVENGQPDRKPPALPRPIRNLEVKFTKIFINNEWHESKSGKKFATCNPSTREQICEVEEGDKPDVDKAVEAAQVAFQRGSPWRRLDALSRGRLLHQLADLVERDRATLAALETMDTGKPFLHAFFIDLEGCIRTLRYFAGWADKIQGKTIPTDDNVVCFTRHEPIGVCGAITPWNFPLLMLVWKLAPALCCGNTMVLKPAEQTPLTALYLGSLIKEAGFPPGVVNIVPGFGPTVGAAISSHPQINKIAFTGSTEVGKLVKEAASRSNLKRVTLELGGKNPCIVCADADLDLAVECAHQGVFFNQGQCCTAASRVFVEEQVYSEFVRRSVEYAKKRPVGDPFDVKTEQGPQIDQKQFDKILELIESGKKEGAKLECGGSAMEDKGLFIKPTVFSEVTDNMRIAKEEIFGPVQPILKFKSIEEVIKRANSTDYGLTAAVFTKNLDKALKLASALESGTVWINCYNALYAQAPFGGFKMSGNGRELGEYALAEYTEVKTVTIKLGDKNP
# Procedure: as §1, §2, §3, §4
# Human recombinant ALDH2 = molecular target: T4, Human recombinant ALDH2 (Homo sapiens, UniProt P05091)
# T4 construct: purchased Creative BioMart, NY, USA
# T4 sequence (P05091 18-517): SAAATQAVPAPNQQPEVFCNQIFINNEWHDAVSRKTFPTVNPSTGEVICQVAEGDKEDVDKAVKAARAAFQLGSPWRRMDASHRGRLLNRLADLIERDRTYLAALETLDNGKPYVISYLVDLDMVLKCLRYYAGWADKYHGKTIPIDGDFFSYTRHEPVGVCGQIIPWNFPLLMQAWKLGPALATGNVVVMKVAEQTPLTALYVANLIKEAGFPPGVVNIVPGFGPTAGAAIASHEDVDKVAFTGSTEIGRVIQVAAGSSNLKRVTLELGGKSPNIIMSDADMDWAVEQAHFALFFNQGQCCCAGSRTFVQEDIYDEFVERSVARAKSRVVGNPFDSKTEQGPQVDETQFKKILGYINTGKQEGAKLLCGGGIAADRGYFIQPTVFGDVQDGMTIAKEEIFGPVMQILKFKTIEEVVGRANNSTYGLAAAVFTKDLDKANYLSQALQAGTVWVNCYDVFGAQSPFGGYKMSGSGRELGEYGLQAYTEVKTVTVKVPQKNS
# Procedure: as §1, §2, §3, §4
IC50 [1],IC50 [2],IC50 [3],IC50 (Human recombinant ALDH2),Structure (SMILES)
37 ± 5 µM,18 ± 4 µM,20 ± 2 µM,72 ± 9 µM,"CSC(=O)C#CC(C)(C)N(C)C [DIMATE, S-methyl 4-(dimethylamino)-4-methylpent-2-ynethioate, reference compound]"
3.8 ± 1.1 µM,0.568 ± 0.09 µM,3.4 ± 0.1 µM,3.1 ± 0.8 µM,"CSC(=O)C#CC(C)(C)N(C)CCOCc1ccccc1 [Example 3, S-methyl 4-[2-benzyloxyethyl(methyl)amino]-4-methyl-pent-2-ynethioate]"
4.3 ± 0.4 µM,1.3 ± 0.2 µM,4.8 ± 0.1 µM,12 ± 3 µM,"CSC(=O)C#CC(C)(C)N(C)CCOCc1ccc(C)c(C)c1 [Example 5, S-methyl 4-[2-[(3,4-dimethylphenyl)methoxy]ethyl-methyl-amino]-4-methyl-pent-2-ynethioate]"
